Measured values from publication PMC6222377, “Design, Synthesis, and Evaluation of Amphiphilic Cyclic and Linear Peptides Composed of Hydrophobic and Positively-Charged Amino Acids as Antibacterial Agents” (Molecules : A Journal of Synthetic Chemistry and Natural …, 2018).
Converted amounts (≈) assume the structure as drawn. Where a SMILES comes first, the peptide text is derived from it.

Tests used:
E. coli (ATCC 25922) = assay: microbe, parasite or virus in culture; format: cell-based, Escherichia coli; settings: ATCC 25922
Method: (§1) To evaluate the antibacterial activity of all the synthesized peptides, the minimum inhibitory concentration (MIC) was determined using the micro broth dilution method (Table 1), as per the Clinical Laboratory Standards Institute (CLSI). The MIC is a quantitative measurement of the minimum concentration of a compound required to inhibit visible bacterial growth. MIC values for all 20 peptides were measured against E. coli (ATCC 25922) and MRSA (Los Angeles County clone (LAC)) (Table 1). These two bacterial strains represent Gram-negative and Gram-positive pathogens. MRSA is one of the most challenging Gram-positive bacteria that leads to a life-threatening infection, while E. coli is a Gram-negative bacteria that has the ability to use gene mutations and multidrug efflux pumps that can result in multidrug resistance.
(§2) Two bacterial strains, methicillin-resistant Staphylococcus aureus (LAC) and Escherichia coli (ATCC 25922) were used for the evaluation of the antibacterial activities of the peptides. […] MRSA and E. coli were inoculated into Mueller Hinton (MH) broth (5 mL) at 37 °C. After shaking in an orbital shaker (175 rpm) overnight, the cultured suspension was diluted using normal saline (5 mL). […] An amount of 40 μL of the McFarland solution was then added to 5980 μL of MH media to afford 1/150 dilution. […] Minimal inhibitory concentrations (MIC) values were obtained using the broth micro dilution assay. In brief, first, the peptides and controls (200 μL) were added to the first column of the 96 well plate. Second, 2-fold serial dilutions of the compound were accomplished by adding media (100 μL) to other wells. After the serial dilution, the bacterial solution (100 μL) was added to all the wells. Finally, the microtiter plates were incubated statically at 37 °C overnight. MIC values were obtained by observing the minimal concentration at which bacterial growth was not visible. All the determinations were carried out in triplicate.

[1] = system: MRSA (Los Angeles County clone (LAC)); assay: microbe, parasite or virus in culture; format: cell-based, methicillin-resistant Staphylococcus aureus
Method: as §1, §2

MRSA (ATCC 43300) = settings: cited from earlier work
Description: Synthesis of AMPs by modifying the structures of amino acids is relatively easy. Change in the structure of natural and synthetic AMPs can be used to develop new active compounds with optimal activity and stability. Developing small-sized linear or cyclic peptides for AMP application is more accessible than the complex AMPs isolated from natural products containing disulfide bonds. The cyclic peptides are polypeptides chains containing a cyclic structure synthesized by linking the carboxylic acid and amino groups in the peptide.

SMILES: N=C(N)NCCC[C@@H]1NC(=O)[C@H](CCCNC(=N)N)NC(=O)[C@H](CCCNC(=N)N)NC(=O)[C@H](Cc2c[nH]c3ccccc23)NC(=O)[C@H](Cc2c[nH]c3ccccc23)NC(=O)[C@H](Cc2c[nH]c3ccccc23)NC(=O)[C@H](Cc2c[nH]c3ccccc23)NC(=O)[C@H](CCCNC(=N)N)NC1=O [[R4W4] (7)] (cyclo(RRRRWWWW))
- MIC E. coli (ATCC 25922) (E. coli (ATCC 25922)): 16 µg/mL (≈ 11.7 µM)
- MIC MRSA (LAC) ([1]; Los Angeles County clone (LAC)): 4 µg/mL (≈ 2.92 µM)
- MIC against MRSA as printed in the cytotoxicity section ([1]; text of section 2.3): 4 µM (≈ 5.48 µg/mL)
- MIC against MRSA (ATCC 43300) (MRSA (ATCC 43300)): 2.67 µg/mL (≈ 1.95 µM)
